Consider 21 compounds from patent publication US20090215778A1, “Alpha-substituted Arylmethyl Piperazine Pyrazolo [1,5-alpha]Pyrimidine Amide Derivatives” (priority 2007, published 2009).

The target of test [1] is T1, HIV Env six-helix bundle (6HB) structure (Human immunodeficiency virus type 1 group M subtype B, UniProt P04579).
T1 construct: H9 cells chronically infected with HIV-1 (H9/HIV-1RF); endogenous in cells; host or cells: H9 cells chronically infected with HIV-1 strain RF (Env is made from the virus in the infected cells, not by transfection)
Nature of the test: Six-helix bundle (6HB) assay. It counts as cell-based, HIV-1 (strain RF). A digest of the protocol: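 Chronically HIV-1 RF-infected H9 cells (12-40 days post-infection), 2.5×10^5 per well, were preincubated with compound for 30 min at 37 °C. sCD4 at 1 μg/mL was added for 1 h to trigger Env changes. 6HB-specific rabbit serum (1 h, 37 °C) was then added, followed by PE anti-rabbit (45 min, 4 °C), with flow cytometric fluorescence read-out.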

Test [2] relates to HIV-1, NL4-3 strain. Nature of the test: Virus infection assay (virus entry and single-cycle infection). The test is classed as cell-based. Conditions: Human immunodeficiency virus 1, NL43, TZM-b1, read-out: Nl4. A digest of the protocol:
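TZM-b1 cells (CD4, CXCR4, CCR5; LTR-driven lacZ/luciferase reporters) were infected with HIV-1 NL4-3 (MOI 0.01) with 80 μg/mL DEAE-dextran in the presence of test compound, 4 h at 37 °C before adding complete medium. Infection was quantified one day post-infection as chemiluminescent β-galactosidase signal.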

pIC50: −log10 of the molar value.

T1 sequence (P04579 32-519): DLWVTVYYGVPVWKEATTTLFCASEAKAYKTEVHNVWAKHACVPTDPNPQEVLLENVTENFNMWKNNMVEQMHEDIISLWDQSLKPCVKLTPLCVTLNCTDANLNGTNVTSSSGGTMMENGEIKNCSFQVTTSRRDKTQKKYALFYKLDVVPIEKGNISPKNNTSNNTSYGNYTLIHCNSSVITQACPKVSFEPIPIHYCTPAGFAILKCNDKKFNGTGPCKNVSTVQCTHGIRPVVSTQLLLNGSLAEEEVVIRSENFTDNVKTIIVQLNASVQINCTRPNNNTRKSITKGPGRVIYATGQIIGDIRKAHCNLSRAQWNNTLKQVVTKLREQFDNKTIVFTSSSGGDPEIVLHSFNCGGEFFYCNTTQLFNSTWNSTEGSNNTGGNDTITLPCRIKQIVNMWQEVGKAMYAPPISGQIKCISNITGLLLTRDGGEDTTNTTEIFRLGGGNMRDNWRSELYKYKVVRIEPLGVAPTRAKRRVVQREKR
T1 sequence (P04579 520-865): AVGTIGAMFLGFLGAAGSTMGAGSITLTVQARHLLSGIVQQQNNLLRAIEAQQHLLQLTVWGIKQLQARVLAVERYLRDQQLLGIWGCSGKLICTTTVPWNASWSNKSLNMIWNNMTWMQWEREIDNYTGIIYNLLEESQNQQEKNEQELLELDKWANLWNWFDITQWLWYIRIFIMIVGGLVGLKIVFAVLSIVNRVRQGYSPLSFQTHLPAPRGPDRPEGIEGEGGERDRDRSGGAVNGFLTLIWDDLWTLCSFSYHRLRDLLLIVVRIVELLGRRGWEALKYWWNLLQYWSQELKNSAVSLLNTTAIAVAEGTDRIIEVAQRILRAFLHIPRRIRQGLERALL

In the case of `COc1ccc(-c2nc3c(C(=O)N4CCN(C(CO)c5cc(F)ccc5F)C[C@H]4C)cnn3c(C(F)(F)F)c2C)cc1` (stereo partly drawn) [methanone, [(2R)-4-[1-(2,5-difluorophenyl)-2-hydroxyethyl]-2-methyl-1-piperazinyl][5-(4-methoxyphenyl)-6-methyl-7-(trifluoromethyl)pyrazolo[1,5-α]pyrimidin-3-yl]-], the pIC50 in test [1] and in test [2] was more than 6.00 throughout.

With `COc1ccc(-c2nc3c(C(=O)N4CCN(C(CO)c5cc(OC)ccc5OC)C[C@H]4C)cnn3c(C(F)(F)F)c2C)cc1` (stereo partly drawn) [methanone, [(2R)-4-[1-(2,5-dimethoxyphenyl)-2-hydroxyethyl]-2-methyl-1-piperazinyl][5-(4-methoxyphenyl)-6-methyl-7-(trifluoromethyl)pyrazolo[1,5-α]pyrimidin-3-yl]-], the values for the pIC50 in test [1] and in test [2] were 5.00 to 5.96 and more than 6.00, respectively.

With `COc1ccc(-c2nc3c(C(=O)N4CCN(C(CO)c5c(F)ccc(OC)c5F)C[C@H]4C)cnn3c(C(F)(F)F)c2C)cc1` (stereo partly drawn) [methanone, [(2R)-4-[1-(2,6-difluoro-3-methoxyphenyl)-2-hydroxyethyl]-2-methyl-1-piperazinyl][5-(4-methoxyphenyl)-6-methyl-7-(trifluoromethyl)pyrazolo[1,5-α]pyrimidin-3-yl]-], the pIC50 in test [1] and in test [2] was more than 6.00 throughout.

Consider `COc1ccc(-c2nc3c(C(=O)N4CCN(C(CO)c5c(F)cccc5F)C[C@H]4C)cnn3c(C(F)(F)F)c2C)cc1` (stereo partly drawn) [methanone, [(2R)-4-[1-(2,6-difluorophenyl)-2-hydroxyethyl]-2-methyl-1-piperazinyl][5-(4-methoxyphenyl)-6-methyl-7-(trifluoromethyl)pyrazolo[1,5-α]pyrimidin-3-yl]-], for which the pIC50 in test [1] and in test [2] was more than 6.00 each time.

On to `COc1ccc(-c2nc3c(C(=O)N4CCN(C(CO)c5ccc(OC)nc5OC)C[C@H]4C)cnn3c(C(F)(F)F)c2C)cc1` (stereo partly drawn) [methanone, [(2R)-4-[1-(2,6-dimethoxy-3-pyridinyl)-2-hydroxyethyl]-2-methyl-1-piperazinyl][5-(4-methoxyphenyl)-6-methyl-7-(trifluoromethyl)pyrazolo[1,5-α]pyrimidin-3-yl]-], for which the pIC50 in test [1] and in test [2] was more than 6.00 in each case.

Turning to `COc1ccc(-c2nc3c(C(=O)N4CCN(C(CO)c5ccccc5N)C[C@H]4C)cnn3c(C(F)(F)F)c2C)cc1` (stereo partly drawn) [methanone, [(2R)-4-[1-(2-aminophenyl)-2-hydroxyethyl]-2-methyl-1-piperazinyl][5-(4-methoxyphenyl)-6-methyl-7-(trifluoromethyl)pyrazolo[1,5-α]pyrimidin-3-yl]-], the pIC50 in test [1] and in test [2] was 5.00 to 5.96 throughout.

`COc1ccc(-c2nc3c(C(=O)N4CCN(C(CO)c5cc6ccccc6o5)C[C@H]4C)cnn3c(C(F)(F)F)c2C)cc1` (stereo partly drawn) [methanone, [(2R)-4-[1-(2-benzofuranyl)-2-hydroxyethyl]-2-methyl-1-piperazinyl][5-(4-methoxyphenyl)-6-methyl-7-(trifluoromethyl)pyrazolo[1,5-α]pyrimidin-3-yl]-]: the pIC50 in test [1] and in test [2] was more than 6.00 each time.

On to `COc1ccc(-c2nc3c(C(=O)N4CCN(C(CO)c5ccccc5Br)C[C@H]4C)cnn3c(C(F)(F)F)c2C)cc1` (stereo partly drawn) [methanone, [(2R)-4-[1-(2-bromophenyl)-2-hydroxyethyl]-2-methyl-1-piperazinyl][5-(4-methoxyphenyl)-6-methyl-7-(trifluoromethyl)pyrazolo[1,5-α]pyrimidin-3-yl]-], for which the pIC50 in test [1] and in test [2] was more than 6.00 in each case.

As to `COc1ccc(-c2nc3c(C(=O)N4CCN(C(CO)c5cccnc5Cl)C[C@H]4C)cnn3c(C(F)(F)F)c2C)cc1` (stereo partly drawn) [methanone, [(2R)-4-[1-(2-chloro-3-pyridinyl)-2-hydroxyethyl]-2-methyl-1-piperazinyl][5-(4-methoxyphenyl)-6-methyl-7-(trifluoromethyl)pyrazolo[1,5-α]pyrimidin-3-yl]-], the pIC50 in test [1] and in test [2] was more than 6.00 in each case.

With `COc1ccc(-c2nc3c(C(=O)N4CCN(C(CO)c5ccccc5Cl)C[C@H]4C)cnn3c(C(F)(F)F)c2C)cc1` (stereo partly drawn) [methanone, [(2R)-4-[1-(2-chlorophenyl)-2-hydroxyethyl]-2-methyl-1-piperazinyl][5-(4-methoxyphenyl)-6-methyl-7-(trifluoromethyl)pyrazolo[1,5-α]pyrimidin-3-yl]-], the pIC50 in test [1] and in test [2] was more than 6.00 each time.

For the compound `CCOc1ncccc1C(CO)N1CCN(C(=O)c2cnn3c(C(F)(F)F)c(C)c(-c4ccc(OC)cc4)nc23)[C@H](C)C1` (stereo partly drawn) [methanone, [(2R)-4-[1-(2-ethoxy-3-pyridinyl)-2-hydroxyethyl]-2-methyl-1-piperazinyl][5-(4-methoxyphenyl)-6-methyl-7-(trifluoromethyl)pyrazolo[1,5-α]pyrimidin-3-yl]-], the pIC50 in test [1] and in test [2] was more than 6.00 each time.

Take `CCOc1ccccc1C(CO)N1CCN(C(=O)c2cnn3c(C(F)(F)F)c(C)c(-c4ccc(OC)cc4)nc23)[C@H](C)C1` (stereo partly drawn) [methanone, [(2R)-4-[1-(2-ethoxyphenyl)-2-hydroxyethyl]-2-methyl-1-piperazinyl][5-(4-methoxyphenyl)-6-methyl-7-(trifluoromethyl)pyrazolo[1,5-α]pyrimidin-3-yl]-]: the pIC50 in test [1] and in test [2] was more than 6.00 in each case.

Take `COc1ccc(-c2nc3c(C(=O)N4CCN(C(CO)c5cccc(OC)c5F)C[C@H]4C)cnn3c(C(F)(F)F)c2C)cc1` (stereo partly drawn) [methanone, [(2R)-4-[1-(2-fluoro-3-methoxyphenyl)-2-hydroxyethyl]-2-methyl-1-piperazinyl][5-(4-methoxyphenyl)-6-methyl-7-(trifluoromethyl)pyrazolo[1,5-α]pyrimidin-3-yl]-]: the pIC50 in test [1] and in test [2] was more than 6.00 each time.

Turning to `COc1ccc(-c2nc3c(C(=O)N4CCN(C(CO)c5c(F)cccc5OC)C[C@H]4C)cnn3c(C(F)(F)F)c2C)cc1` (stereo partly drawn) [methanone, [(2R)-4-[1-(2-fluoro-6-methoxyphenyl)-2-hydroxyethyl]-2-methyl-1-piperazinyl][5-(4-methoxyphenyl)-6-methyl-7-(trifluoromethyl)pyrazolo[1,5-α]pyrimidin-3-yl]-], the pIC50 in test [1] and in test [2] was more than 6.00 in each case.

As for `COc1ccc(-c2nc3c(C(=O)N4CCN(C(CO)c5ccccc5F)C[C@H]4C)cnn3c(C(F)(F)F)c2C)cc1` (stereo partly drawn) [methanone, [(2R)-4-[1-(2-fluorophenyl)-2-hydroxyethyl]-2-methyl-1-piperazinyl][5-(4-methoxyphenyl)-6-methyl-7-(trifluoromethyl)pyrazolo[1,5-α]pyrimidin-3-yl]-], the pIC50 in test [1] and in test [2] was more than 6.00 in each case.

Take `COc1ccc(-c2nc3c(C(=O)N4CCN(C(CO)c5ccccc5F)C[C@H]4C)cnn3c(C(F)(F)F)c2C)cn1` (stereo partly drawn) [methanone, [(2R)-4-[1-(2-fluorophenyl)-2-hydroxyethyl]-2-methyl-1-piperazinyl][5-(6-methoxy-3-pyridinyl)-6-methyl-7-(trifluoromethyl)pyrazolo[1,5-α]pyrimidin-3-yl]-]: the pIC50 in test [1] and in test [2] was more than 6.00 throughout.

Turning to `COc1ccc(-c2nc3c(C(=O)N4CCN(C(CO)c5ccco5)C[C@H]4C)cnn3c(C(F)(F)F)c2C)cc1` (stereo partly drawn) [methanone, [(2R)-4-[1-(2-furanyl)-2-hydroxyethyl]-2-methyl-1-piperazinyl][5-(4-methoxyphenyl)-6-methyl-7-(trifluoromethyl)pyrazolo[1,5-α]pyrimidin-3-yl]-], the pIC50 in test [1] and in test [2] was more than 6.00 in each case.

For `COc1ccc(-c2nc3c(C(=O)N4CCN(C(CO)c5cc(F)cc(F)c5OC)C[C@H]4C)cnn3c(C(F)(F)F)c2C)cc1` (stereo partly drawn) [methanone, [(2R)-4-[1-(3,5-difluoro-2-methoxyphenyl)-2-hydroxyethyl]-2-methyl-1-piperazinyl][5-(4-methoxyphenyl)-6-methyl-7-(trifluoromethyl)pyrazolo[1,5-α]pyrimidin-3-yl]-], the pIC50 in test [1] and in test [2] was more than 6.00 in each case.

In the case of `COc1ccc(-c2nc3c(C(=O)N4CCN(C(CO)c5cc(F)cc(F)c5)C[C@H]4C)cnn3c(C(F)(F)F)c2C)cc1` (stereo partly drawn) [methanone, [(2R)-4-[1-(3,5-difluorophenyl)-2-hydroxyethyl]-2-methyl-1-piperazinyl][5-(4-methoxyphenyl)-6-methyl-7-(trifluoromethyl)pyrazolo[1,5-α]pyrimidin-3-yl]-], the pIC50 in test [1] and in test [2] was more than 6.00 in each case.

For the compound `COc1ccc(-c2nc3c(C(=O)N4CCN(C(CO)c5cccc(N)c5)C[C@H]4C)cnn3c(C(F)(F)F)c2C)cc1` (stereo partly drawn) [methanone, [(2R)-4-[1-(3-aminophenyl)-2-hydroxyethyl]-2-methyl-1-piperazinyl][5-(4-methoxyphenyl)-6-methyl-7-(trifluoromethyl)pyrazolo[1,5-α]pyrimidin-3-yl]-], the pIC50 in test [1] and in test [2] was more than 6.00 each time.

On to `COc1ccc(-c2nc3c(C(=O)N4CCN(C(CO)c5cccc(Br)c5)C[C@H]4C)cnn3c(C(F)(F)F)c2C)cc1` (stereo partly drawn) [methanone, [(2R)-4-[1-(3-bromophenyl)-2-hydroxyethyl]-2-methyl-1-piperazinyl][5-(4-methoxyphenyl)-6-methyl-7-(trifluoromethyl)pyrazolo[1,5-α]pyrimidin-3-yl]-], for which the pIC50 in test [1] and in test [2] was more than 6.00 throughout.
